From ChEMBL document CHEMBL6178023 (J Med Chem, 2025)
Values after ≈ are worked out from the molar mass of the structure shown. Active and inactive are the calls of the source. The rule behind the calls is not given here.

Experiments:
Chikungunya virus [1] = experiment: Antiviral activity against CHIKV 181/25 expressing nLuc-capsid gene infected in human MRC5 cells assessed as reduction in viral replication preincubated with cells for 1 hr followed by viral infection measured after 6 hrs post-infection by Nano-glo luciferase assay; assay type: functional, organism-based; conditions: 181/25, MRC5, read-out: pEC50 (converted)
MRC5 = experiment: Cytotoxicity against human MRC5 cells at 10 to 40 uM by Cell Titer Glo assay; assay type: toxicity, cell-based; conditions: mrc5, 40 µM, dose 10-40 µM
[2] = Aqueous solubility of compound in PBS at pH 7.4; assay type: physicochemical
Polyprotein P1234 = Polyprotein P1234 (Chikungunya virus (strain S27-African prototype) (CHIKV), UniProt Q8JUX6); experiment: Inhibition of N-terminal 6-His/SUMO-tagged CHIKV 181/25 nsP2 extracted from Escherichia coli Rosetta 2 preincubated for 30 mins followed by ATP addition measured after 1 hr by ADP-Glo assay
Chikungunya virus [3] = experiment: Inhibition of N-terminal 6-His/SUMO-tagged CHIKV 181/25 nsP2 extracted from Escherichia coli Rosetta 2 at 200 uM preincubated for 30 mins followed by ATP addition measured after 1 hr by ADP-Glo assay relative to control; conditions: time 90.0 min

Sequence of Polyprotein P1234 (Q8JUX6 536-1333 limits assumed): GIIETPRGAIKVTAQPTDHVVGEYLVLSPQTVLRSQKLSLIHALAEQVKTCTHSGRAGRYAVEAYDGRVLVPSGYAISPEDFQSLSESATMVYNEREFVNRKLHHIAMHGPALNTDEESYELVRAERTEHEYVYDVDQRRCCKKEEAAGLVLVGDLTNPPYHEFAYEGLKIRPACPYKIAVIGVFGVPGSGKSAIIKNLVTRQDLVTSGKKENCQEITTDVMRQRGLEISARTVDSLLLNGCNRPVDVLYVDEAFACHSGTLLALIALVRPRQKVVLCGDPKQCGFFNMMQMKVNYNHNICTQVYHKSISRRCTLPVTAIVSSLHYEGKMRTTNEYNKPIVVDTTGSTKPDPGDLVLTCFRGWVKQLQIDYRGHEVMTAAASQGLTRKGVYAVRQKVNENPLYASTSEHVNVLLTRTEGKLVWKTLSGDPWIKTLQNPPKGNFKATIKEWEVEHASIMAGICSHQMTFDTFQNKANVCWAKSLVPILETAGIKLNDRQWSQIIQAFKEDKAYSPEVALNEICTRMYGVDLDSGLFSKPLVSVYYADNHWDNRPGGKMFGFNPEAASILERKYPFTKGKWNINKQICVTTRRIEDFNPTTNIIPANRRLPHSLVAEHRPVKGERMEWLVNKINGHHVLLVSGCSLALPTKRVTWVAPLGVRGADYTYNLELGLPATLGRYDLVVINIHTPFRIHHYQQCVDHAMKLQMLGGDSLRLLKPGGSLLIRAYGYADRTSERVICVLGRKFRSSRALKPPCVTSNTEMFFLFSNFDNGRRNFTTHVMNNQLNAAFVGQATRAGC

For O=C(N1CCC2(CC1)CC(CNS(=O)(=O)C1CC1)CCO2)C1(c2ccccc2)CCCC1 (stereo unspecified), which EC50 (Chikungunya virus [1]) is on record?
The EC50 was 3.98 µM.

And the Activity (MRC5)?
The Activity was “Non-toxic”.

What about the solubility kinetic [2] of the same compound?
The solubility kinetic was 180 µM (≈ 82.9 µg/mL).

And the IC50 (Polyprotein P1234)?
Its IC50 is 20 µM.

Which results are given for O=C(NCC1CCOC2(CCN(C(=O)C3(c4ccccc4)CCCC3)CC2)C1)Nc1ccccc1 (stereo unspecified)?
EC50 (Chikungunya virus [1]): 1.26 µM; Activity (MRC5): Non-toxic; solubility kinetic [2]: 10 µM (≈ 4.76 µg/mL); IC50 (Polyprotein P1234): 15.8 µM

Which inhibition (Chikungunya virus [3]) does the source give for COc1cccc(C(=O)NCC2CCOC3(CCN(C(=O)C4(c5ccccc5)CCCC4)CC3)C2)c1 (stereo unspecified) here?
The inhibition was 70%.

And the EC50 (Chikungunya virus [1])?
Its EC50 is 5.01 µM.

What about the Activity (MRC5) of the same compound?
Its Activity is “Non-toxic”.

And the solubility kinetic [2]?
Its solubility kinetic is 19 µM (≈ 9.32 µg/mL).

What about the IC50 (Polyprotein P1234) of the same compound?
The IC50 was over 39.8 µM.

With O=C(NCC1CCOC2(CCN(C(=O)C3(c4ccccc4)CCCC3)CC2)C1)c1ccncc1 (stereo unspecified) as the compound, how does the inhibition (Chikungunya virus [3]) read?
Its inhibition is 70%.

And the EC50 (Chikungunya virus [1])?
Its EC50 is 10 µM.

What about the Activity (MRC5) of the same compound?
Its Activity is “Non-toxic”.

What about the solubility kinetic [2] of the same compound?
The solubility kinetic was 170 µM (≈ 78.5 µg/mL).

And the IC50 (Polyprotein P1234)?
Its IC50 is over 39.8 µM.

What does the source list for CCCCCCN(CC1CCOC2(CCN(C(=O)C3(c4ccccc4)CCCC3)CC2)C1)S(C)(=O)=O (stereo unspecified)?
EC50 (Chikungunya virus [1]): 1.58 µM; Activity (MRC5): Non-toxic; solubility kinetic [2]: < 1 µM; IC50 (Polyprotein P1234): 12.6 µM

Which results are given for COc1ccc(NC(=O)NCC2CCOC3(CCN(C(=O)C4(c5ccccc5)CCCC4)CC3)C2)cc1 (stereo unspecified)?
EC50 (Chikungunya virus [1]): 3.98 µM; Activity (MRC5): Non-toxic; solubility kinetic [2]: 10 µM (≈ 5.06 µg/mL); IC50 (Polyprotein P1234): 20 µM

With O=C(N1CCC2(CC1)CC(CNCc1ccccc1)CCO2)C1(c2ccccc2)CCCC1 (stereo unspecified) as the compound, how does the EC50 (Chikungunya virus [1]) read?
Its EC50 is 10 µM.

What about the Activity (MRC5) of the same compound?
Its Activity is “Non-toxic”.

What about the solubility kinetic [2] of the same compound?
Its solubility kinetic is 180 µM (≈ 80.4 µg/mL).

What about the IC50 (Polyprotein P1234) of the same compound?
Its IC50 is over 39.8 µM.

With Cc1cccc(C2(C(=O)N3CCC4(CC3)CC(CNS(=O)(=O)N(C)C)CCO4)CCCC2)c1 (stereo unspecified) as the compound, how does the inhibition (Chikungunya virus [3]) read?
The inhibition was 90%.

And the EC50 (Chikungunya virus [1])?
Its EC50 is 3.98 µM.

What about the Activity (MRC5) of the same compound?
The Activity was “Non-toxic”.

And the IC50 (Polyprotein P1234)?
The IC50 was over 39.8 µM.

What does the source list for O=C(N1CCC2(CC1)CC(CN1CCCS1(=O)=O)CCO2)C1(c2ccccc2)CCCC1 (stereo unspecified)?
EC50 (Chikungunya virus [1]): 0.398 µM; Activity (MRC5): Non-toxic; solubility kinetic [2]: > 220 µM; IC50 (Polyprotein P1234): 1.58 µM

With COc1ccc(C(=O)NCC2CCOC3(CCN(C(=O)C4(c5ccccc5)CCCC4)CC3)C2)cc1 (stereo unspecified) as the compound, how does the EC50 (Chikungunya virus [1]) read?
The EC50 was 3.98 µM.

What about the Activity (MRC5) of the same compound?
The Activity was “Non-toxic”.

What about the solubility kinetic [2] of the same compound?
The solubility kinetic was 35 µM (≈ 17.2 µg/mL).

And the IC50 (Polyprotein P1234)?
The IC50 was 20 µM.

Which EC50 (Chikungunya virus [1]) does the source give for O=C(N1CCC2(CC1)CC(CN1CCCCS1(=O)=O)CCO2)C1(c2ccccc2F)CCCC1 (stereo unspecified) here?
The EC50 was 0.251 µM.

And the Activity (MRC5)?
The Activity was “Non-toxic”.

What about the solubility kinetic [2] of the same compound?
Its solubility kinetic is 190 µM (≈ 93.6 µg/mL).

What about the IC50 (Polyprotein P1234) of the same compound?
Its IC50 is 1 µM.

Which results are given for O=C(CCCCl)NCC1CCOC2(CCN(C(=O)C3(c4ccccc4)CCCC3)CC2)C1 (stereo unspecified)?
EC50 (Chikungunya virus [1]): 0.316 µM; Activity (MRC5): Non-toxic; solubility kinetic [2]: 170 µM (≈ 78.4 µg/mL); IC50 (Polyprotein P1234): 2 µM

Which results are given for CC(C)(C)NC(=O)NCC1CCOC2(CCN(C(=O)C3(c4ccccc4)CCCC3)CC2)C1 (stereo unspecified)?
inhibition (Chikungunya virus [3]): 80%; EC50 (Chikungunya virus [1]): 10 µM; Activity (MRC5): Non-toxic; solubility kinetic [2]: 170 µM (≈ 77.5 µg/mL); IC50 (Polyprotein P1234): > 39.8 µM

For CC(C)NC(=O)NCC1CCOC2(CCN(C(=O)C3(c4ccccc4)CCCC3)CC2)C1 (stereo unspecified), which inhibition (Chikungunya virus [3]) is on record?
The inhibition was 50%.

And the EC50 (Chikungunya virus [1])?
Its EC50 is 15.8 µM.

And the Activity (MRC5)?
The Activity was “Non-toxic”.

And the solubility kinetic [2]?
The solubility kinetic was 180 µM (≈ 79.5 µg/mL).

And the IC50 (Polyprotein P1234)?
The IC50 was over 39.8 µM.

For COc1ccccc1NC(=O)NCC1CCOC2(CCN(C(=O)C3(c4ccccc4)CCCC3)CC2)C1 (stereo unspecified), which inhibition (Chikungunya virus [3]) is on record?
The inhibition was “inactive”.

And the EC50 (Chikungunya virus [1])?
The EC50 was 3.98 µM.

What about the Activity (MRC5) of the same compound?
The Activity was “Non-toxic”.

What about the solubility kinetic [2] of the same compound?
Its solubility kinetic is under 10 µM.

With CN(C)S(=O)(=O)NCC1CCOC2(CCN(C(=O)C3(c4cccc(C(F)(F)F)c4)CCCC3)CC2)C1 (stereo unspecified) as the compound, how does the inhibition (Chikungunya virus [3]) read?
Its inhibition is 40%.

And the EC50 (Chikungunya virus [1])?
The EC50 was 100 µM.

What about the Activity (MRC5) of the same compound?
The Activity was “Non-toxic”.

What about the IC50 (Polyprotein P1234) of the same compound?
Its IC50 is over 39.8 µM.

With NC(=O)NCC1CCOC2(CCN(C(=O)C3(c4ccccc4)CCCC3)CC2)C1 (stereo unspecified) as the compound, how does the inhibition (Chikungunya virus [3]) read?
The inhibition was 50%.

And the EC50 (Chikungunya virus [1])?
The EC50 was 12.6 µM.

And the Activity (MRC5)?
The Activity was “Non-toxic”.

What about the solubility kinetic [2] of the same compound?
Its solubility kinetic is 190 µM (≈ 75.9 µg/mL).

What about the IC50 (Polyprotein P1234) of the same compound?
The IC50 was over 39.8 µM.

Which results are given for CS(=O)(=O)N(Cc1ccccc1)CC1CCOC2(CCN(C(=O)C3(c4ccccc4)CCCC3)CC2)C1 (stereo unspecified)?
inhibition (Chikungunya virus [3]): inactive; EC50 (Chikungunya virus [1]): 10 µM; Activity (MRC5): Non-toxic; solubility kinetic [2]: < 1 µM

Which results are given for CCCCCC(=O)NCC1CCOC2(CCN(C(=O)C3(c4ccccc4)CCCC3)CC2)C1 (stereo unspecified)?
EC50 (Chikungunya virus [1]): 2 µM; Activity (MRC5): Non-toxic; solubility kinetic [2]: 60 µM (≈ 27.3 µg/mL); IC50 (Polyprotein P1234): 6.31 µM

With CN(CC1CCOC2(CCN(C(=O)C3(c4ccccc4)CCCC3)CC2)C1)S(C)(=O)=O (stereo unspecified) as the compound, how does the EC50 (Chikungunya virus [1]) read?
Its EC50 is 1.26 µM.

What about the Activity (MRC5) of the same compound?
The Activity was “Non-toxic”.

What about the solubility kinetic [2] of the same compound?
Its solubility kinetic is 180 µM (≈ 80.8 µg/mL).

What about the IC50 (Polyprotein P1234) of the same compound?
Its IC50 is 3.16 µM.

Which inhibition (Chikungunya virus [3]) does the source give for Cc1ccnc(NC2CCOC3(CCN(C(=O)C4(c5ccccc5)CCCC4)CC3)C2)c1 (stereo unspecified) here?
Its inhibition is 70%.

What about the EC50 (Chikungunya virus [1]) of the same compound?
Its EC50 is 6.31 µM.

What about the Activity (MRC5) of the same compound?
The Activity was “Non-toxic”.

What about the solubility kinetic [2] of the same compound?
The solubility kinetic was 70 µM (≈ 30.4 µg/mL).

What about the IC50 (Polyprotein P1234) of the same compound?
Its IC50 is over 39.8 µM.

Which results are given for O=C(N1CCC2(CC1)CC(Nc1ccccc1)CCO2)C1(c2ccccc2)CCCC1 (stereo unspecified)?
EC50 (Chikungunya virus [1]): 5.01 µM; Activity (MRC5): Non-toxic; solubility kinetic [2]: 20 µM (≈ 8.37 µg/mL); IC50 (Polyprotein P1234): 15.8 µM

Which EC50 (Chikungunya virus [1]) does the source give for O=C(NCC1CCOC2(CCN(C(=O)C3(c4ccccc4)CCCC3)CC2)C1)C1CCCCC1 (stereo unspecified) here?
The EC50 was 2.51 µM.

What about the Activity (MRC5) of the same compound?
The Activity was “Non-toxic”.

And the solubility kinetic [2]?
Its solubility kinetic is 130 µM (≈ 60.7 µg/mL).

And the IC50 (Polyprotein P1234)?
Its IC50 is 31.6 µM.

With CN(C)S(=O)(=O)NCC1CCOC2(CCN(C(=O)C3(c4ccccc4Cl)CCCC3)CC2)C1 (stereo unspecified) as the compound, how does the EC50 (Chikungunya virus [1]) read?
The EC50 was 1.26 µM.

And the Activity (MRC5)?
The Activity was “Non-toxic”.

And the IC50 (Polyprotein P1234)?
Its IC50 is 7.94 µM.
